Measured values: paper PMC9867315, “Enhanced Cytotoxic Activity of PEGylated Curcumin Derivatives: Synthesis, Structure–Activity Evaluation, and Biological Activity” (International Journal of Molecular Sciences, 2023)
Read-outs that look alike come from different tables or passages of the source.

Assays:
5637 cells [1] = assay: Proteome Profiler Human Cell Stress Array; type: cell-based; conditions: 5637, hypoxic conditions, 4 µM, 18 h, compared to control cells
Description: The 5637 cells were seeded in a Petri dish (Ø 35 mm) at a density of 0.4 × 10^6 cells/dish and incubated overnight. Cells were treated with compound 5 at a concentration of 4 µM (hypoxia) and 8 µM (normoxia) for 18 h. […] After incubation, cells were lysed in a lysis buffer containing pepstatin A, leupeptin, and aprotinin (each at a concentration of 10 µg/mL). Total protein was determined using a Pierce BCA protein assay Kit and stored at −80 °C until future use. A total of 300 µg of protein was then incubated with a human Proteome Profiler Human Cell Stress Array (Bio-Techne, Minneapolis, MN, USA) according to the manufacturer’s instructions. The membranes were visualized using the I-Bright Imaging System (Thermofisher Scientific, Waltham, MA, USA). The spot densitometric analysis was performed using Image Studio Lite (version 5.2) software (LI-COR Biosciences, Lincoln, NE, USA).

SCaBER cells [2] = assay: MTT cytotoxicity assay, SCaBER bladder cancer cells; type: cell-based, human; conditions: hypoxia (1% oxygen)
Description: (§1) For the hypoxia experiments, cells were cultured at 1% O2 (5% CO2/94% N2; 37 °C) using a hypoxia station (Whitley H35 hypoxystation; Don Whitley, Bingley, UK). All media used in these experiments were incubated under hypoxic conditions before being added to the cells.
(§2) Then, DMSO was added to dissolve the formazan crystals.

5637 cells [3] = assay: MTT cytotoxicity assay, 5637 bladder cancer cells; type: cell-based, human
Description: as §1, §2

MRC-5 cells [4] = assay: MTT cytotoxicity assay, MRC-5 normal lung fibroblasts
Description: (§3) Human urinary grade II carcinoma cell line (5637) and human urinary squamous cell carcinoma (SCaBER) were purchased from ATCC (Manassas, VA, USA). The MRC-5 cell line (normal human lung fibroblasts) was purchased from the European Collection of Authenticated Cell Cultures (ECACC) distributed by Sigma-Aldrich. The 5637 cells were grown in RPMI, SCaBER cells were cultured in EMEM, and MRC-5 in DMEM. All media were supplemented with 10% (v/v) FBS, 2 mM L-glutamine, 100 U/mL penicillin, and 10 mg/mL streptomycin in a humidified atmosphere of 5% CO2 at 37 °C.
(§4) 5637 and SCaBER cells were seeded at 15 × 10^3 cells/well, while MRC-5 was at a density of 20 × 10^3 cells/well and incubated overnight. In the case of the hypoxia experiments, cells were transferred to a hypoxia chamber and incubated for 24 h. […] The cytotoxic activity of tested compounds was measured after 24 h and 48 h using the MTT assay. After incubation lasting 24 h and 48 h, the cells were washed twice with PBS, and 170 µL of MTT (final concentration of 0.59 mg/mL in cell culture medium) was added to each well. Cells were incubated for 1.5 h under standard cell culture conditions. Then, DMSO was added to dissolve the formazan crystals. The absorbance was measured at a wavelength of 570 nm with a plate reader (Biotek Instruments, Elx-800, Winooski, VT, USA). Cell viability was calculated as a percentage of the control. All experiments were repeated at least two times (two independent experiments performed in hexaplicate). The IC50 values were determined using GraphPad 8.0 software (GraphPad Software, Inc., La Jolla, CA, USA).

[5] = as above; conditions: human, MRC-5 normal lung fibroblasts
Description: as §3, §4

SCaBER cells [6] = assay: MTT cytotoxicity assay, SCaBER bladder cancer cells; type: cell-based, human; conditions: normoxia
5637 cells [7] = assay: Cell cycle distribution, propidium iodide flow cytometry; type: cell-based, human; conditions: for G2/M cell population: 5637, 6 µM, 24 h
Description: The 5637 cells (0.4 × 10^6 cells/well) were seeded in 6-well plates and incubated overnight under standard cell culture conditions or in a hypoxia workstation. Then, the tested compound was added at a concentration of 4 µM, 5 µM, and 6 µM (for hypoxic conditions), and 6 µM, 8 µM, and 10 µM (for normoxic conditions), and incubated for 24 h. […] After incubation, cells were washed twice with PBS, trypsinized, and washed again with PBS. Cells were fixed with 70% ethanol at 4 °C. After fixation, the cells were washed twice with PBS and treated with RNAse (100 µg/mL) and PI (50 µg/mL) for 30 min at 37 °C in the dark. The samples were analyzed using BD FACSLyric™ (Becton Dickinson, Franklin Lakes, NJ, USA). Finally, cell cycle distribution was analyzed using flow cytometry. The percentages of cells in the G1, S, and G2/M phases were calculated using FlowJo software version 10.8.1 (Becton Dickinson, Ashland, OR, USA).

[8] = system: human peripheral blood mononuclear cell (PBMC); set-up: method as in ref 38 (Deters et al.); conditions: ref 38 (Deters et al.); cited from earlier work
MRC-5 cells [9] = conditions: 10 µM
Description: as §3, §4

T24 cell line = system: T24 cell line; set-up: method as in ref 53 (Park et al.); conditions: T24 cells, 12.5 µM; ref 53 (Park et al.); cited from earlier work
[10] = set-up: method as in ref 41 (Wang et al.); conditions: ref 41 (Wang et al.), cited from earlier work
[11] = Homo sapiens, 24 h, 24 h incubation
[12] = Homo sapiens, 48 h, 48 h incubation
[13] = Homo sapiens, 24 h, 5637, hypoxia (1% oxygen), 24 h incubation, MTT, read-out: IC50
[14] = Homo sapiens, 24 h, 5637, normoxia, 24 h incubation, MTT, read-out: IC50
[15] = Homo sapiens, 48 h, 5637, hypoxia (1% oxygen), 48 h incubation, MTT, read-out: IC50
[16] = Homo sapiens, 48 h, 5637, normoxia, 48 h incubation, MTT, read-out: IC50
[17] = 5637, 24 h, hypoxic conditions, vs control
[18] = 5637, hypoxia (1% oxygen), 24 h incubation, MTT, read-out: IC50
[19] = 5637, hypoxia (1% oxygen), 48 h incubation, MTT, read-out: IC50
[20] = 5637, normoxia, 24 h incubation, MTT, read-out: IC50
[21] = 5637, normoxia, 48 h incubation, MTT, read-out: IC50
[22] = MRC-5, normoxia, 24 h incubation, MTT
[23] = MRC-5, normoxia, 48 h incubation, MTT

Compound	IC50 (SCaBER cells [2]; 24 h incubation)	IC50 (SCaBER cells [2]; 48 h incubation)	IC50 (5637 cells [3]; [18])	IC50 (5637 cells [3]; [19])	IC50 (5637 cells [3]; [20])	IC50 (5637 cells [3]; [21])	IC50 (MRC-5 cells [4]; [22])	IC50 (MRC-5 cells [4]; [23])	IC50 (SCaBER cells [6]; 24 h incubation)	IC50 (SCaBER cells [6]; 48 h incubation)	further results
COCCOCCOCCOc1ccc(/C=C/C(=O)/C=C(O)/C=C/c2ccc(OCCOCCOCCOC)c(OC)c2)cc1OC [Compound 5, (1E,4Z,6E)-5-hydroxy-1,7-bis(3-methoxy-4-{2-[2-(2-methoxyethoxy)ethoxy]ethoxy}phenyl)-hepta-1,4,6-trien-3-one]											expression of HIF-1α, HIF-2α, ADAMTS-1, phospho-JNK, p21, and phospho-HSP27 (5637 cells [1]): increased; IC50 (SCaBER cells [2]; [11]): 7.27 ± 0.2 µM; IC50 (SCaBER cells [2]; [12]): 7.58 ± 0.91 µM; IC50 (5637 cells [3]; [13]): 6.43 ± 0.26 µM; IC50 (5637 cells [3]; [14]): 8.4 ± 0.21 µM; IC50 (5637 cells [3]; Homo sapiens, 24 h, 5637, panel A (normoxia, 5-10 µM), 24 h, read-out: IC50 (narrow concentration range)): 7.89 ± 0.47 µM; IC50 (5637 cells [3]; Homo sapiens, 24 h, 5637, panel B (hypoxia 1% oxygen, 3-8 µM), 24 h, read-out: IC50 (narrow concentration range)): 5.29 ± 0.02 µM; IC50 (5637 cells [3]; [15]): 5.02 ± 1.06 µM; IC50 (5637 cells [3]; [16]): 7.91 ± 0.46 µM; IC50 (5637 cells [3]; Homo sapiens, 48 h, 5637, panel A (normoxia, 5-10 µM), 48 h, read-out: IC50 (narrow concentration range)): 7.82 ± 1 µM; IC50 (5637 cells [3]; Homo sapiens, 48 h, 5637, panel B (hypoxia 1% oxygen, 3-8 µM), 48 h, read-out: IC50 (narrow concentration range)): 5.29 ± 0.16 µM; IC50 (MRC-5 cells [4]; Homo sapiens, MRC5, 24 h): > 10 µM; IC50 (MRC-5 cells [4]; Homo sapiens, MRC5, 48 h): > 10 µM; viability at 10 µM [5]: ~100%; IC50 (SCaBER cells [6]; [11]): 8.53 ± 0.16 µM; IC50 (SCaBER cells [6]; [12]): 7.97 ± 0.4 µM; G2/M cell population (5637 cells [7]; hypoxia): 38%; G2/M cell population (5637 cells [7]; normoxia): 24%; number of cells in the G0/G1 phase (5637 cells [7]; [17]): significantly decreased; number of cells in the S phase (5637 cells [7]; [17]): slightly increased
COCCOCCOCCOc1cc(/C=C/C(=O)/C=C(O)/C=C/c2ccc(OC)c(OCCOCCOCCOC)c2)ccc1OC [Compound 7, (1E,4Z,6E)-5-hydroxy-1,7-bis(4-methoxy-3-{2-[2-(2-methoxyethoxy)ethoxy]ethoxy}phenyl)-hepta-1,4,6-trien-3-one]											viability at 10 µM (5637 cells [3]; Homo sapiens, 5637, 10 µM, 24 h incubation, preliminary screen, read-out: cell viability): > 60%
COc1ccc(/C=C/C(=O)/C=C(O)/C=C/c2ccc(OC)c(O)c2)cc1O [Isocurcumin (13), (1E,4Z,6E)-5-hydroxy-1,7-bis(4-methoxy-3-hydroxyphenyl)-hepta-1,4,6-trien-3-one]											IC50 (SCaBER cells [2]; [11]): 14.2 ± 0.23 µM; IC50 (SCaBER cells [2]; [12]): 11.94 ± 0.09 µM; IC50 (5637 cells [3]; [13]): 13.1 ± 2.89 µM; IC50 (5637 cells [3]; [14]): 10.8 ± 3.46 µM; IC50 (5637 cells [3]; [15]): 10.1 ± 3.12 µM; IC50 (5637 cells [3]; [16]): 6.71 ± 1.7 µM; IC50 [8]: 2.8 µM; IC50 (MRC-5 cells [4]; Homo sapiens, MRC5, 24 h): > 20 µM; IC50 (MRC-5 cells [4]; Homo sapiens, MRC5, 48 h): > 20 µM; IC50 (SCaBER cells [6]; [11]): 14.7 ± 0.88 µM; IC50 (SCaBER cells [6]; [12]): 14.3 ± 0.41 µM
(1E,3Z,6E)-1,7-bis(3-methoxy-4-hydroxyphenyl)-5-oxohepta-1,3,6-trien-3-yl difluoroborinate [Compound 10]	2.35 ± 0.22 µM	2.6 ± 0.03 µM	1.96 ± 0.47 µM	2.12 ± 0.33 µM	2.25 ± 0.08 µM	2.17 ± 0.24 µM	> 10 µM	7.84 ± 0.15 µM	2.59 ± 0.16 µM	2.71 ± 0.34 µM	
(1E,3Z,6E)-1,7-bis(3-methoxy-4-{2-[2-(2-methoxyethoxy)ethoxy]ethoxy}phenyl)-5-oxohepta-1,3,6-trien-3-yl difluoroborinate [Compound 4]	2.42 ± 0.23 µM	2.86 ± 0.62 µM	2.58 ± 0.11 µM	2.96 ± 0.23 µM	3.31 ± 0.34 µM	3.27 ± 0.45 µM	> 10 µM	> 10 µM	4.18 ± 1.3 µM	4.57 ± 2.07 µM	cell viability (MRC-5 cells [9]): 66%
(1E,3Z,6E)-1,7-bis(4-methoxy-3-hydroxyphenyl)-5-oxohepta-1,3,6-trien-3-yl difluoroborinate [Compound 12]	3.26 ± 1.05 µM	4.25 ± 1.94 µM	2.32 ± 0.29 µM	2.64 ± 0.54 µM	2.48 ± 0.55 µM	2.4 ± 0.45 µM	9.63 ± 2.61 µM	5.8 ± 0.77 µM	2.28 ± 0.13 µM	2.21 ± 0.17 µM	
(1E,3Z,6E)-1,7-bis(4-methoxy-3-{2-[2-(2-methoxyethoxy)ethoxy]ethoxy}phenyl)-5-oxohepta-1,3,6-trien-3-yl difluoroborinate [Compound 6]	5.85 ± 1.98 µM	7.28 ± 1.81 µM	2.37 ± 0.19 µM	2.66 ± 0.07 µM	2.6 ± 0.99 µM	2.63 ± 0.77 µM	> 10 µM	9.34 ± 0.76 µM	4.11 ± 1.4 µM	4.35 ± 1.97 µM	
(1E,4Z,6E)-5-hydroxy-1,7-bis (3-methoxy-4-hydroxyphenyl)-hepta-1,4,6-trien-3-one [Curcumin (11), reference compound]	11.6 ± 0.83 µM	11.3 ± 0.19 µM	12.1 ± 0.16 µM	13.3 ± 0.54 µM	12.7 ± 3.03 µM	12.9 ± 2.35 µM	70.4 ± 12.5 µM	45.3 ± 3.18 µM	13.1 ± 0.68 µM	12.6 ± 0.62 µM	cell population in G2/M (T24 cell line): 64%; curcumin decomposed ([10]; cell culture medium in the presence of FCS, within 1 h): less than 20%; curcumin decomposed ([10]; cell culture medium in the presence of FCS, within 8 h): < 50%; curcumin decomposed ([10]; serum-free medium, within 30 min): about 90%; IC50 [8]: 2.8 µM
